According to US20250230193A1, “CYCLIC COMPOUND HAVING SELECTIVE KRAS INHIBITORY EFFECT ON HRAS AND NRAS” (CHUGAI SEIYAKU KABUSHIKI KAISHA, priority 2022, published 2025):
*1 amine or outer side, *2 acyl side, *3 side chain or, on linkers, in order; H or OH if unused. Where a SMILES comes first, the peptide text is derived from it. Bridges are numbered along the chain shown (N, C = ends). [ ]: non-standard residue; d: D form. The star is where a group is joined. hPhe(3-Cl-4-CF3) = N[C@@H](CCc1ccc(C(F)(F)F)c(Cl)c1)C(=O)O; X49 = Cc1ccc(C[C@@H](C(=O)[*:2])N(CC2CC2)[*:1])cc1; X48 = C=CCCN([C@@H](Cc1ccc(C)cc1)C(=O)[*:2])[*:1]; NMeGly(cPent) = CN[C@H](C(=O)O)C1CCCC1; NMeAllylGly = C=CC[C@H](NC)C(=O)O; NMeD = CN[C@@H](CC(=O)O)C(=O)O; NMeL = CN[C@@H](CC(C)C)C(=O)O; Morpholide = C1CN(*)CCO1; NMeA = CN[C@@H](C)C(=O)O; Ac5c = NC1(C(=O)O)CCCC1; Aze = O=C(O)[C@@H]1CCN1; Sar = CNCC(=O)O

Columns and labels:
[1] = target: GDP-bound HRAS wild-type protein (Homo sapiens, UniProt P01112); experiment: Binding to HRAS by surface plasmon resonance (SPR), Single Cycle Kinetics; settings: SPR
[2] = target: GDP-bound NRAS wild-type protein (Homo sapiens, UniProt P01111); experiment: Binding to NRAS by surface plasmon resonance (SPR), Single Cycle Kinetics; settings: SPR
[3] = KD ratio, GDP-bound HRAS wild-type vs GDP-bound KRAS wild-type
[4] = KD ratio, GDP-bound NRAS wild-type vs GDP-bound KRAS wild-type

Sequence of GDP-bound HRAS wild-type protein (P01112 whole entry): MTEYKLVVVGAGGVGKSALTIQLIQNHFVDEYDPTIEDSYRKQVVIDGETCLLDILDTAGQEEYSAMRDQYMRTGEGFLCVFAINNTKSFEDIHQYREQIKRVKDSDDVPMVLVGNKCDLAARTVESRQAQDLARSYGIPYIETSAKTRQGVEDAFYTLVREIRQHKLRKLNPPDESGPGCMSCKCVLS
Sequence of GDP-bound NRAS wild-type protein (P01111 whole entry): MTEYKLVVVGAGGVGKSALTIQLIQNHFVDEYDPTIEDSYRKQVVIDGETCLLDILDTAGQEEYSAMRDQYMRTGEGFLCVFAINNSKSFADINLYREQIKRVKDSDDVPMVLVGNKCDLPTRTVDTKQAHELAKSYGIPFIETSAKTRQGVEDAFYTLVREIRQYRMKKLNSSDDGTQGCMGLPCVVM

## CCO[C@@H]1C[C@H]2C(=O)NC3(CCC3)C(=O)N(C)[C@@H](C3CCCC3)C(=O)N(CC)[C@H](C(=O)N3CCOCC3)CC(=O)N(C)[C@@H](CC)C(=O)N[C@@H]([C@@H](C)CC)C(=O)N(C)CC(=O)N(C)[C@H]3C/C=C\CCN(C3=O)[C@@H](Cc3ccc(C(F)(F)F)cc3)C(=O)N(C)CC(=O)N[C@@H](CCc3cc(F)c(C(F)(F)F)c(F)c3)C(=O)N2C1 [PP0979]
[1]; [3]
  HRAS/KRAS (ratio of KD value with respect to HRAS to KD value with respect to KRAS): A (a compound having 10 or more and less than 20 is denoted as A)
[2]; [4]
  NRAS/KRAS (ratio of KD value with respect to NRAS to KD value with respect to KRAS): AA (a compound having 20 or more is denoted as AA)

## CCO[C@@H]1C[C@H]2C(=O)NC3(CCC3)C(=O)N(C)[C@@H](C3CCCC3)C(=O)N(C)[C@H](C(=O)N(C)C)CC(=O)N(C)[C@@H](CC3CC3)C(=O)N[C@@H]([C@@H](C)CC)C(=O)N(C)CC(=O)N(C)[C@H]3CCCCN(C3=O)[C@@H](Cc3ccc(C(F)(F)F)cc3)C(=O)N(C)CC(=O)N[C@@H](CCc3cc(F)c(C(F)(F)F)c(F)c3)C(=O)N2C1 [PP0697]
[1]
  HRAS/KRAS (ratio of KD value with respect to GDP-bound HRAS wild-type protein to KD value with respect to KRAS): C (A compound having a KD ratio of 0.1 or more and less than 3 is denoted as C)
[2]
  NRAS/KRAS (ratio of KD value with respect to GDP-bound NRAS wild-type protein to KD value with respect to KRAS): C (A compound having a KD ratio of 0.1 or more and less than 3 is denoted as C)

## CC[C@H](C)[C@@H]1NC(=O)[C@H](CC(C)C)N(C)C(=O)C[C@@H](C(=O)N2CCOCC2)N(C)C(=O)[C@H](C2CCCC2)N(C)C(=O)C2(CCCC2)NC(=O)[C@@H]2CCCN2C(=O)[C@H](CCc2ccc(C(F)(F)F)c(Cl)c2)NC(=O)CN(C)C(=O)[C@H](Cc2ccc(C)cc2)N(CC2CC2)C(=O)[C@@H]2CCN2C(=O)[C@H](C)N(C)C1=O [PP0057] ([NMeL]I[NMeA][Aze][X49][Sar][hPhe(3-Cl-4-CF3)]P[Ac5c][NMeGly(cPent)][NMeD]-Morpholide; lactam N-11)
[1]
  HRAS/KRAS (ratio of KD for GDP-bound HRAS wild-type to KD for KRAS): B (a compound having 3 or more and less than 10 is denoted as B)
[2]
  NRAS/KRAS (ratio of KD for GDP-bound NRAS wild-type to KD for KRAS): C (A compound having a KD ratio of 0.1 or more and less than 3 is denoted as C)

## CCO[C@@H]1C[C@H]2C(=O)NC3(CC(C)(C)C3)C(=O)N(C)[C@@H](C(CC)CC)C(=O)N(C)[C@H](C(=O)N(C)C)CC(=O)N(C)[C@@H](CC)C(=O)N[C@@H]([C@@H](C)CC)C(=O)N(C)CC(=O)N(C)[C@H]3C/C=C\CCN(C3=O)[C@@H](Cc3ccc(C)cc3)C(=O)N(C)CC(=O)N[C@@H](CCc3cc(F)c(C(F)(F)F)c(F)c3)C(=O)N2C1 [PP2147]
[1]; GDP-bound HRAS wild-type vs GDP-bound KRAS wild-type
  HRAS/KRAS (ratio of KD value with respect to HRAS to KD value with respect to KRAS): B (a compound having 3 or more and less than 10 is denoted as B)
[2]; GDP-bound NRAS wild-type vs GDP-bound KRAS wild-type
  NRAS/KRAS (ratio of KD value with respect to NRAS to KD value with respect to KRAS): A (a compound having 10 or more and less than 20 is denoted as A)

## CCO[C@@H]1C[C@H]2C(=O)NC3(CCC3)C(=O)N(C)[C@@H](C3CCCC3)C(=O)N(C)[C@H](C(=O)N3CCOCC3)CC(=O)N(C)C[C@@H](C)C(=O)N[C@@H]([C@@H](C)CC)C(=O)N(C)CC(=O)N(C)[C@H]3CCCCN(C3=O)[C@@H](Cc3ccc(C(F)(F)F)cc3)C(=O)N(C)CC(=O)N[C@@H](CCc3cc(F)c(C(F)(F)F)c(F)c3)C(=O)N2C1 [PP0721]
[1]
  HRAS/KRAS (ratio of KD value with respect to GDP-bound HRAS wild-type protein to KD value with respect to KRAS): B (a compound having 3 or more and less than 10 is denoted as B)
[2]
  NRAS/KRAS (ratio of KD value with respect to GDP-bound NRAS wild-type protein to KD value with respect to KRAS): B (a compound having 3 or more and less than 10 is denoted as B)

## C=CCCN1C(=O)[C@H](CC=C)N(C)C(=O)CN(C)C(=O)[C@H]([C@@H](C)CC)NC(=O)[C@H](CC(C)C)N(C)C(=O)C[C@@H](C(=O)N2CCOCC2)N(C)C(=O)[C@H](C2CCCC2)N(C)C(=O)C2(CCCC2)NC(=O)[C@@H]2CCCN2C(=O)[C@H](CCc2ccc(C(F)(F)F)c(Cl)c2)NC(=O)CN(C)C(=O)[C@@H]1Cc1ccc(C)cc1 [PP0140] ([NMeL]I[Sar][NMeAllylGly][X48][Sar][hPhe(3-Cl-4-CF3)]P[Ac5c][NMeGly(cPent)][NMeD]-Morpholide; lactam N-11)
[1]
  HRAS/KRAS (ratio of KD for GDP-bound HRAS wild-type to KD for KRAS): B (a compound having 3 or more and less than 10 is denoted as B)
[2]
  NRAS/KRAS (ratio of KD for GDP-bound NRAS wild-type to KD for KRAS): C (A compound having a KD ratio of 0.1 or more and less than 3 is denoted as C)

## CCO[C@@H]1C[C@H]2C(=O)NC3(CCC3)C(=O)N(C)[C@@H](C3CCCC3)C(=O)N(C)[C@H](C(=O)N(C)CC)CC(=O)N(C)[C@@H](CC(F)(F)F)C(=O)N[C@@H]([C@@H](C)CC)C(=O)N(C)CC(=O)N(C)[C@H]3C/C=C\CCN(C3=O)[C@@H](Cc3ccc(C(F)(F)F)cc3)C(=O)N(C)CC(=O)N[C@@H](CCc3cc(F)c(C(F)(F)F)c(F)c3)C(=O)N2C1 [PP1701]
[1]; [3]
  HRAS/KRAS (ratio of KD value for HRAS to KD value for KRAS): A (a compound having 10 or more and less than 20 is denoted as A)
[2]; [4]
  NRAS/KRAS (ratio of KD value for NRAS to KD value for KRAS): A (a compound having 10 or more and less than 20 is denoted as A)
